From patent publication US20230295157A1, “3-(1H-IMIDAZOL-2-YL)-2,3,8,8A-TETRAHYDROINDOLIZIN-5(1H)-ONE DERIVATIVES USEFUL AS FACTOR XIA INHIBITORS” (JANSSEN PHARMACEUTICA NV, priority 2020, published 2023)
Read-outs that look alike come from different tables or passages of the source.

What was measured:
Factor XIa = Factor XIa (Homo sapiens (Human), UniProt P03951); test: Factor XIa inhibition assay (FLINT) utilizing a fluorophore-quencher pair peptide substrate; assay type: biochemical; details: 30 min preincubation, kinetic reads over 30 min, read-out: FXIa Kin Inh IC50
Factor XIa, sequence (P03951 388-625): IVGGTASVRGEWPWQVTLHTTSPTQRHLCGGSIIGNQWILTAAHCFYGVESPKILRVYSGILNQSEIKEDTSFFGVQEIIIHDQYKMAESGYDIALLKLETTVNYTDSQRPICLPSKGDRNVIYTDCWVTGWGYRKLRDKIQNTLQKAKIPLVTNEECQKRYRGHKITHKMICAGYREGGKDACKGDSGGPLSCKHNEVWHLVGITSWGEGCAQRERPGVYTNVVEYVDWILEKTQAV
Factor XIa, sequence (P03951 19-387 partner): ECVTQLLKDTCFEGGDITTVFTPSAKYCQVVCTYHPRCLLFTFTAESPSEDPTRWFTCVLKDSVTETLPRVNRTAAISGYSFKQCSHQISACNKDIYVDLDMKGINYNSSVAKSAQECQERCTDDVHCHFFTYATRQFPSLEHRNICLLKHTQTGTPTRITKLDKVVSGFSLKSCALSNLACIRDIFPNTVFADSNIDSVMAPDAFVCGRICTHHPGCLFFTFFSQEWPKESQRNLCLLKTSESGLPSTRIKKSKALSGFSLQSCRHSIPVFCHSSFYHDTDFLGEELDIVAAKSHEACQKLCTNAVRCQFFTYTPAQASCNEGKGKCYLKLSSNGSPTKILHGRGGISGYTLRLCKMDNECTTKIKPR
Procedure, shortened: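 FXIa ([…]) preincubated 30 min with compound (11-point 3-fold dilution, top 100 nM, 2% DMSO), then 15 μM quenched FXI Arg146-based peptide added; Tris pH 7.5, CaCl2, BSA, CHAPS. Fluorescence 485/520 nm read kinetically every 5 min over 30 min at RT; IC50 by 4-parameter fit.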

human plasma kallikrein = human plasma kallikrein (Homo sapiens (Human), UniProt P03952); test: Kallikrein inhibition assay (FLINT) utilizing a quenched AMC peptide substrate; assay type: biochemical; details: 30 min preincubation, kinetic reads over 30 min, Z-Gly-Pro-Arg-AMC substrate 50 μM; read-out: Kallikrein Kin Inh IC50
human plasma kallikrein, sequence (P03952 391-638): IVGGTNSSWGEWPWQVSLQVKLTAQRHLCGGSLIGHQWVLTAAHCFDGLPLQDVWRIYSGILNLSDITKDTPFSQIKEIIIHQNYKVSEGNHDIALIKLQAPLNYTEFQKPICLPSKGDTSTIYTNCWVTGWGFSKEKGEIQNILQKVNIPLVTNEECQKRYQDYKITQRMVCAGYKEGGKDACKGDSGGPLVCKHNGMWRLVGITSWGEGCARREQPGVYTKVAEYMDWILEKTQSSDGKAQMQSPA
human plasma kallikrein, sequence (P03952 20-390 partner): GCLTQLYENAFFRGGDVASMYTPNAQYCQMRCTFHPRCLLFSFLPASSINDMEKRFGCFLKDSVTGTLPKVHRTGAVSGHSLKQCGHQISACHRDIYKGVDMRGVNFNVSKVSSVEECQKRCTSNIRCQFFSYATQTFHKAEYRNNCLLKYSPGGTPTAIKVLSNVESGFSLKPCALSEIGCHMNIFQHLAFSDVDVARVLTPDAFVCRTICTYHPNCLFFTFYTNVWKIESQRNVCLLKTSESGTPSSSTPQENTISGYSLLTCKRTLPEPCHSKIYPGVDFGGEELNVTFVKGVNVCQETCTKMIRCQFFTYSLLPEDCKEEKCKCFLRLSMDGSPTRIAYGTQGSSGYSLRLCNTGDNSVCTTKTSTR
Procedure, shortened: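 Enzyme (2 nM final) pre-incubated 30 min at room temperature with compound (11-point, 3-fold, top 1 μM, 2% DMSO), then 50 μM Z-Gly-Pro-Arg-AMC added in Tris pH 7.5 buffer. Kinetic fluorescence 340/440 nm every 5 min over 30 min; IC50 from 4-parameter logistic fit.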

[1] = 5Fam-[…]-K5Tamra substrate 15 μM
[2] = 5Fam-KLTRAETV-K5Tamra substrate 15 μM

**Q.** With `O=C1C=C(c2c(-n3cnnn3)ccc(Cl)c2F)CC2CC[C@H](c3nc(F)c(-c4ccnc(N[C@H]5CCOC5)c4F)[nH]3)N12` (relative stereo) [Example 77, (3R*)-7-(3-chloro-2-fluoro-6-(1H-tetrazol-1-yl)phenyl)-3-(4-fluoro-5-(3-fluoro-2-(((S)-tetrahydrofuran-3-yl)amino)pyridin-4-yl)-1H-imidazol-2-yl)-2,3,8,8a-tetrahydroindolizin-5(1H)-one] as the molecule, how does the IC50 (Factor XIa; [1]) read?
**A.** 1.3 nM

**Q.** And the IC50 (human plasma kallikrein)?
**A.** 5 nM

**Q.** How did the IC50 (Factor XIa; [1]) turn out when `[2H]c1cc(Cl)cc(C2=CC(=O)N3[C@H](CC[C@@H]3c3ncc(-c4ccc(N)nc4F)[nH]3)C2)c1-n1cnnn1` (single isomer, unassigned) [Example 121] was run?
**A.** 0.7 nM

**Q.** What about the IC50 (human plasma kallikrein) of the same molecule?
**A.** 16.9 nM

**Q.** How did the IC50 (Factor XIa; [2]) turn out when `O=C1Cc2cc(-c3cnc([C@@H]4CC[C@H]5CC(c6c(-n7cnnn7)ccc(Cl)c6F)=CC(=O)N54)[nH]3)ccc2N1` [Example 283, 5-(2-((3S,8aS)-7-(3-Chloro-2-fluoro-6-(1H-tetrazol-1-yl)phenyl)-5-oxo-1,2,3,5,8,8a-hexahydroindolizin-3-yl)-1H-imidazol-5-yl)indolin-2-one] was run?
**A.** 3.5 nM

**Q.** And the IC50 (human plasma kallikrein)?
**A.** 5.9 nM

**Q.** Which IC50 (Factor XIa; [2]) does the source give for `[2H]c1cc(-c2cnc([C@@H]3CC[C@@H]4CC(c5c(-n6cnnn6)ccc(Cl)c5F)=CC(=O)N43)[nH]2)c(F)nc1N` [Example 147, (3S,8aR)-3-[5-(6-amino-5-deuterio-2-fluoro-3-pyridyl)-1H-imidazol-2-yl]-7-[3-chloro-2-fluoro-6-(tetrazol-1-yl)phenyl]-2,3,8,8a-tetrahydro-1H-indolizin-5-one] here?
**A.** 0.5 nM

**Q.** What about the IC50 (human plasma kallikrein) of the same molecule?
**A.** 7.8 nM

**Q.** Which IC50 (Factor XIa; [2]) does the source give for `Nc1ccc(-c2cnc([C@@H]3CC[C@@H]4CC(c5cc(Cl)ccc5-n5cnnn5)=CC(=O)N43)[nH]2)c(F)n1` [Example 123, (3S,8aR)-3-[5-(6-amino-2-fluoro-3-pyridyl)-1H-imidazol-2-yl]-7-[5-chloro-2-(tetrazol-1-yl)phenyl]-2,3,8,8a-tetrahydro-1H-indolizin-5-one] here?
**A.** 0.4 nM

**Q.** And the IC50 (human plasma kallikrein)?
**A.** 8.6 nM

**Q.** `[2H]c1nc([C@H]2CC[C@]3([2H])CC(c4c(-n5cnnn5)ccc(Cl)c4F)=CC(=O)N23)[nH]c1-c1c(F)nc(N)c([2H])c1[2H]` (single isomer, unassigned) [Example 131, (3R*,8aR*)-3-(5-(6-amino-2-fluoropyridin-3-yl-4,5-d2)-1H-imidazol-2-yl-4-d)-7-(3-chloro-2-fluoro-6-(1H-tetrazol-1-yl)phenyl)-2,3,8,8a-tetrahydroindolizin-5(1H)-one-8a-d] was tested. Which IC50 (Factor XIa; [1]) did it give?
**A.** 0.9 nM

**Q.** And the IC50 (human plasma kallikrein)?
**A.** 11.7 nM

**Q.** With `O=C1C=C(c2c(-n3cnnn3)ccc(Cl)c2F)CC2CCC(c3nc(-c4cccc(-c5ccn[nH]5)n4)c(F)[nH]3)N12` (single isomer, unassigned) [Example 66, (3S*)-3-(4-(6-(1H-pyrazol-5-yl)pyridin-2-yl)-5-fluoro-1H-imidazol-2-yl)-7-(3-chloro-2-fluoro-6-(1H-tetrazol-1-yl)phenyl)-2,3,8,8a-tetrahydroindolizin-5(1H)-one] as the molecule, how does the IC50 (Factor XIa; [1]) read?
**A.** 55 nM

**Q.** And the IC50 (human plasma kallikrein)?
**A.** 25.9 nM

**Q.** For `N#CC1(c2nccc(-c3cnc([C@@H]4CC[C@@H]5CC(c6c(-n7cnnn7)ccc(Cl)c6F)=CC(=O)N54)[nH]3)c2F)CC1` (single isomer, unassigned) [Example 139, 1-(4-(2-((3S,8a*R)-7-(3-chloro-2-fluoro-6-(1H-tetrazol-1-yl)phenyl)-5-oxo-1,2,3,5,8,8a-hexahydroindolizin-3-yl)-1H-imidazol-5-yl)-3-fluoropyridin-2-yl)cyclopropane-1-carbonitrile], which IC50 (Factor XIa; [2]) is on record?
**A.** 29.1 nM

**Q.** And the IC50 (human plasma kallikrein)?
**A.** 22 nM

**Q.** Which results are given for `NC(=O)c1ccc(-c2nc([C@@H]3CC[C@@H]4CC(c5c(-n6cc(C(F)(F)F)nn6)ccc(Cl)c5F)=CC(=O)N43)[nH]c2Cl)s1` [Example 203, 5-(5-Chloro-2-((3S,8aR)-7-(3-chloro-2-fluoro-6-(4-(trifluoromethyl)-1H-1,2,3-triazol-1-yl)phenyl)-5-oxo-1,2,3,5,8,8a-hexahydroindolizin-3-yl)-1H-imidazol-4-yl)thiophene-2-carboxamide]?
**A.** IC50 (Factor XIa; [2]): 0.9 nM; IC50 (human plasma kallikrein): 2.5 nM

**Q.** With `NC(=O)c1ccc(-c2cnc([C@@H]3CC[C@@H]4CC(c5c(-n6cnnn6)ccc(Cl)c5F)=CC(=O)N43)[nH]2)s1` (relative stereo) [Example 238, 5-(2-((3*S,8aR)-7-(3-Chloro-2-fluoro-6-(1H-tetrazol-1-yl)phenyl)-5-oxo-1,2,3,5,8,8a-hexahydroindolizin-3-yl)-1H-imidazol-5-yl)thiophene-2-carboxamide] as the molecule, how does the IC50 (Factor XIa; [1]) read?
**A.** 0.2 nM

**Q.** What about the IC50 (human plasma kallikrein) of the same molecule?
**A.** 0.7 nM

**Q.** How did the IC50 (Factor XIa; [1]) turn out when `O=C1C=C(c2c(-n3cnnn3)ccc(Cl)c2F)C[C@H]2CC[C@@H](c3ncc(-c4ccnc([C@@H](O)C(F)(F)F)c4)[nH]3)N12` (relative stereo) [Example 175, (3S*,8 aR*)-7-(3-chloro-2-fluoro-6-(1H-tetrazol-1-yl)phenyl)-3-(5-(2-((R*)-2,2,2-trifluoro-1-hydroxyethyl)pyridin-4-yl)-1H-imidazol-2-yl)-2,3,8,8a-tetrahydroindolizin-5(1H)-one] was run?
**A.** 9.5 nM

**Q.** And the IC50 (human plasma kallikrein)?
**A.** 30.3 nM

**Q.** Which IC50 (Factor XIa; [2]) does the source give for `Nc1ccc(-c2cnc([C@@H]3CC[C@@H]4CC(c5cc(Cl)ccc5-n5cnnn5)=CC(=O)N43)[nH]2)c(F)n1` (single isomer, unassigned) [Example 120, (3*S,8aR)-3-(5-(6-amino-2-fluoropyridin-3-yl-5-d)-1H-imidazol-2-yl)-7-(5-chloro-2-(1H-tetrazol-1-yl)phenyl-3-d)-2,3,8,8a-tetrahydroindolizin-5(1H)-one] here?
**A.** 4.5 nM

**Q.** And the IC50 (human plasma kallikrein)?
**A.** 67.7 nM

**Q.** Which results are given for `O=C1C=C(c2c(-n3cc(Cl)nn3)ccc(Cl)c2F)C[C@H]2CC[C@@H](c3nc(-c4cc[nH]c(=O)c4F)c[nH]3)N12` [Example 200, (3S,8aR)-7-(3-chloro-6-(4-chloro-1H-1,2,3-triazol-1-yl)-2-fluorophenyl)-3-(4-(3-fluoro-2-oxo-1,2-dihydropyridin-4-yl)-1H-imidazol-2-yl)-2,3,8,8a-tetrahydroindolizin-5(1H)-one]?
**A.** IC50 (Factor XIa; [2]): 4.4 nM; IC50 (human plasma kallikrein): 24.4 nM

**Q.** With `O=C1C=C(c2c(-n3cnnn3)ccc(Cl)c2F)C[C@H]2CC[C@@H](c3nc(F)c(-c4ccnc(-n5cccn5)c4)[nH]3)N12` [Example 88, (3S,8aR)-7-[3-chloro-2-fluoro-6-(tetrazol-1-yl)phenyl]-3-[4 fluoro-5-(2-pyrazol-1-yl-4-pyridyl)-1H-imidazol-2-yl]-2,3,8,8a-tetrahydro-1H-indolizin-5-one] as the molecule, how does the IC50 (Factor XIa; [2]) read?
**A.** 1.5 nM

**Q.** What about the IC50 (human plasma kallikrein) of the same molecule?
**A.** 1.9 nM

**Q.** How did the IC50 (Factor XIa; [2]) turn out when `[2H]c1cc(N)nc(F)c1-c1cnc([C@@H]2CC[C@@H]3CC(c4c(-n5cnnn5)ccc(Cl)c4F)=CC(=O)N32)[nH]1` [Example 150, (3S,8aR)-3-[5-(6-amino-4-deuterio-2-fluoro-3-pyridyl)-1H-imidazol-2-yl]-7-[3-chloro-2-fluoro-6-(tetrazol-1-yl)phenyl]-2,3,8,8a-tetrahydro-1H-indolizin-5-one] was run?
**A.** 0.6 nM

**Q.** And the IC50 (human plasma kallikrein)?
**A.** 8.6 nM

**Q.** Which results are given for `O=C1C=C(c2c(-n3cnnn3)ccc(Cl)c2F)C[C@H]2CC[C@@H](c3nc(F)c(-c4ccnc(-c5ccn[nH]5)c4)[nH]3)N12` (single isomer, unassigned) [Example 31]?
**A.** IC50 (Factor XIa; [2]): 0.7 nM; IC50 (human plasma kallikrein): 1.8 nM

**Q.** Which results are given for `CC1C[C@@H](c2ncc(-c3ccc(N)nc3F)[nH]2)N2C(=O)C=C(c3c(-n4cnnn4)ccc(Cl)c3F)CC12` (stereo partly drawn) [Example 348, (3S)-3-(5-(6-Amino-2-fluoropyridin-3-yl)-1H-imidazol-2-yl)-7-(3-chloro-2-fluoro-6-(1H-tetrazol-1-yl)phenyl)-1-methyl-2,3,8,8a-tetrahydroindolizin-5(1H)-one]?
**A.** IC50 (Factor XIa; [2]): 0.5 nM; IC50 (human plasma kallikrein): 6.4 nM

**Q.** `O=C1C=C(c2c(-n3cnnn3)ccc(Cl)c2F)C[C@H]2CC[C@@H](c3ncc(-c4ccnc(-n5ccnn5)c4)[nH]3)N12` [Example 85, (3S,8aR)-7-[3-chloro-2-fluoro-6-(tetrazol-1-yl)phenyl]-3-[5-[2-(triazol-1-yl)-4-pyridyl]-1H-imidazol-2-yl]-2,3,8,8a-tetrahydro-1H-indolizin-5-one] was tested. Which IC50 (Factor XIa; [2]) did it give?
**A.** 11.1 nM

**Q.** And the IC50 (human plasma kallikrein)?
**A.** 8.9 nM

**Q.** Which results are given for `O=C1C=C(c2c(-n3cc(C(F)(F)F)nn3)ccc(Cl)c2F)C[C@H]2CC[C@@H](c3ncc(-c4ccnc(CO)c4F)[nH]3)N12` [Example 67, (3S,8aR)-7-(3-chloro-2-fluoro-6-(4-(trifluoromethyl)-1H-1,2,3-triazol-1-yl)phenyl)-3-(5-(3-fluoro-2-(hydroxymethyl)pyridin-4-yl)-1H-imidazol-2-yl)-2,3,8,8a-tetrahydroindolizin-5(1H)-one]?
**A.** IC50 (Factor XIa; [2]): 10.7 nM; IC50 (human plasma kallikrein): 85.7 nM

**Q.** For `NC(=O)c1ccc(-c2nc([C@@H]3CC[C@@H]4CC(c5c(-n6cnnn6)ccc(Cl)c5F)=CC(=O)N43)[nH]c2Cl)s1` [Example 211, 5-(5-Chloro-2-((3S,8aR)-7-(3-chloro-2-fluoro-6-(1H-tetrazol-1-yl)phenyl)-5-oxo-1,2,3,5,8,8a-hexahydroindolizin-3-yl)-1H-imidazol-4-yl)thiophene-2-carboxamide], which IC50 (Factor XIa; [1]) is on record?
**A.** 0.2 nM

**Q.** What about the IC50 (human plasma kallikrein) of the same molecule?
**A.** 0.8 nM

**Q.** Which IC50 (Factor XIa; [2]) does the source give for `CC(=O)N[C@H](C)c1ccc(-c2cnc([C@@H]3CCC4CC(c5c(-n6cnnn6)ccc(Cl)c5F)=CC(=O)N43)[nH]2)cc1` (stereo partly drawn) [Example 16, N-[(1R)-1-[4-[2-[(3S)-7-[3-Chloro-2-fluoro-6-(tetrazol-1-yl)phenyl]-5-oxo-2,3,8,8a-tetrahydro-1H-indolizin-3-yl]-1H-imidazol-5-yl]phenyl]ethyl]acetamide] here?
**A.** 61 nM

**Q.** What about the IC50 (human plasma kallikrein) of the same molecule?
**A.** 330 nM
